Laboratory results published in patent US4316891A, “Extended N-terminal somatostatin” (The Salk Institute for Biological Studies, priority 1980, dated 1982).
Where a SMILES comes first, the peptide text is derived from it. Bridges are numbered along the chain shown (N, C = ends).

Tests used:
[1] = test system: cells of rat pituitary glands; test: in vitro inhibition of basal growth hormone secretion in rat pituitary cell cultures, side-by-side with somatostatin; type: cell-based; details: substantially pure peptide, in words
Protocol: To determine the effectiveness of the peptides to inhibit the release of growth hormone, in vitro assays are carried out using both somatostatin-28and somatostatin-25 in side-by-side comparison with equimolar concentrations of somotostatin having a known effectiveness to inhibit the release of growth hormone by pituitary cells. Cultures are used which include cells of rat pituitary glands removed some four to five days previously. Both cultures of a defined standard medium and cultures which are considered optimal for the secretion of growth hormone, as a result of having additions of either 2% or 10% of serum from a foetal calf, are used for the comparative testing between either somatostatin and somatostatin-28 or between somatostatin and somatostatin-25.
(§1) The statistical analysis of the results is carried out generally in accordance with the EXBIOL program reported in the article by Sakiz, Excerpta Medica, Int. Cong. Ser. No. 83 (1964), pp. 225-229.

[2] = test system: secretion of growth hormone; test: in vivo inhibition of growth hormone secretion stimulated by morphine in rats; details: in words
Protocol: as §1

[3] = juvenile-type diabetics, complete absence of circulating insulin; cited from earlier work

Row | Compound | potency versus somatostatin in inhibiting the release of GH in vitro [1] | activity versus somatostatin to inhibit growth hormone secretion stimulated by morphine [2] | diminution of fasting hyperglycemia [3] [%]
1 | CSCC[C@H](NC(=O)[C@H](C)NC(=O)[C@@H]1CCCN1C(=O)[C@H](CC(N)=O)NC(=O)[C@@H](N)CO)C(=O)N[C@@H](C)C(=O)N1CCC[C@H]1C(=O)N[C@@H](CCCNC(=N)N)C(=O)N[C@@H](CCC(=O)O)C(=O)N[C@@H](CCCNC(=N)N)C(=O)N[C@@H](CCCCN)C(=O)N[C@@H](C)C(=O)NCC(=O)N[C@H]1CSSC[C@@H](C(=O)O)NC(=O)[C@H](CO)NC(=O)[C@H]([C@@H](C)O)NC(=O)[C@H](Cc2ccccc2)NC(=O)[C@H]([C@@H](C)O)NC(=O)[C@H](CCCCN)NC(=O)[C@H](Cc2c[nH]c3ccccc23)NC(=O)[C@H](Cc2ccccc2)NC(=O)[C@H](Cc2ccccc2)NC(=O)[C@H](CC(N)=O)NC(=O)[C@H](CCCCN)NC1=O [somatostatin-25] (H-SNPAMAPRERKAGCKNFFWKTFTSC-OH; disulfide 14-25) | more potent than somatostatin | much more active than somatostatin | –
2 | CSCC[C@H](NC(=O)[C@H](C)NC(=O)[C@@H]1CCCN1C(=O)[C@H](CC(N)=O)NC(=O)[C@H](CO)NC(=O)[C@H](CC(N)=O)NC(=O)[C@H](C)NC(=O)[C@@H](N)CO)C(=O)N[C@@H](C)C(=O)N1CCC[C@H]1C(=O)N[C@@H](CCCNC(=N)N)C(=O)N[C@@H](CCC(=O)O)C(=O)N[C@@H](CCCNC(=N)N)C(=O)N[C@@H](CCCCN)C(=O)N[C@@H](C)C(=O)NCC(=O)N[C@H]1CSSC[C@@H](C(=O)O)NC(=O)[C@H](CO)NC(=O)[C@H]([C@@H](C)O)NC(=O)[C@H](Cc2ccccc2)NC(=O)[C@H]([C@@H](C)O)NC(=O)[C@H](CCCCN)NC(=O)[C@H](Cc2c[nH]c3ccccc23)NC(=O)[C@H](Cc2ccccc2)NC(=O)[C@H](Cc2ccccc2)NC(=O)[C@H](CC(N)=O)NC(=O)[C@H](CCCCN)NC1=O [somatostatin-28] | more potent than somatostatin | much more active than somatostatin | –
3 | somatostatin: tetradecapeptide somatostatin characterized by Guillemin et al., U.S. Pat. No. 3,904,594 (H-AGCKNFFWKTFTSC-OH; disulfide 3-14; ends not checked; UniProt P61278 103-116, looked up) | – | – | ≤ 50
